Experimental data from patent publication US11591311B2, “3-oxo-6-heteroaryl-2-phenyl-2,3-dihydropyridazine-4-carboxamides” (priority 2017, dated 2023).

Target: T1, AHR (Homo sapiens, UniProt P35869)
T1 construct: U87 glioblastoma cells (ATCC) endogenously expressing AHR; host or cells: U87 glioblastoma cells, stably transfected with DRE-firefly luciferase and renilla reporter constructs
T1 sequence (P35869 11-848): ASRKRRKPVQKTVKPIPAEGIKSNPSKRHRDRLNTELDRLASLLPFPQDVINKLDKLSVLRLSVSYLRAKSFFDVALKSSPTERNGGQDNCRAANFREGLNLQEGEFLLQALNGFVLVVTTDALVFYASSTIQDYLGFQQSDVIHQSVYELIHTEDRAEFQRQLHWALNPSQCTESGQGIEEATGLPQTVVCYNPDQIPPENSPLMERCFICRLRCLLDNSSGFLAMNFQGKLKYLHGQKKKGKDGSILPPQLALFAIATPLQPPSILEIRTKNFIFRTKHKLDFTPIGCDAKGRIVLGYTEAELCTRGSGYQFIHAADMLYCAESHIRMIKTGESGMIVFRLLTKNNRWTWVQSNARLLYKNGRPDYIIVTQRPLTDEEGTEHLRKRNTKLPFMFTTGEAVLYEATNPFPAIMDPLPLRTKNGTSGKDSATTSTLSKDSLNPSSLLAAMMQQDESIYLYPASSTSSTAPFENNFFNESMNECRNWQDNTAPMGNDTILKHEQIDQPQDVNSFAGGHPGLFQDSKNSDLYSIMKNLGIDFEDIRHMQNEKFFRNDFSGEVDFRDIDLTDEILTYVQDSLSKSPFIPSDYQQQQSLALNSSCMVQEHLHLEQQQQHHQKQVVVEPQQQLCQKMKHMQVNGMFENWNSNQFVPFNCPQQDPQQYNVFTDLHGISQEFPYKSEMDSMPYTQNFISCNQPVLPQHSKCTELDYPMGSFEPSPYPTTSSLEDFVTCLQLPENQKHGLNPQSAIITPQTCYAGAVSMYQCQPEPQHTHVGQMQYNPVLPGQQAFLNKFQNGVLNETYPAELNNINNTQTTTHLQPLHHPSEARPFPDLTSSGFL
Assay: In vitro assay 1: AHR-luc transactivation assay, antagonism in human cell line (U87 glioblastoma cells prestimulated with kynurenic acid)
Assay type: cell-based
Description: Transactivation Assay in Human Cell Line (In Vitro Assays 1 and 2)
Transactivation assays were carried out in U87 glioblastoma cells (ATCC) endogenously expressing AHR. In addition the cells were stably transfected with an AHR inducible firefly luciferase reporter gene construct that carried AHR-binding sites (DRE) in its promoter and a renilla reporter gene construct with constitutively active promoter. Kynurenic acid is an endogenous AHR activating ligand and was used to prestimulate test cells prior to testing the antagonistic properties of compounds.
In Vitro Assay 1: Antagonism in Human Cell Line
Cells in medium (tryptophan free RPMI, 1% FCS, 2 mM Glutamine) supplemented with 150 μM kynurenic acid were grown for 20 hours in absence (negative control) or presence of increasing concentrations of test compounds (typical dilutions: 72 pmol/L, 0.25 nmol/L, 0.89 nmol/L; 3.1 nmol/L, 11 nmol/L, 38 nmol/L, 130 nmol/L, 470 nmol/L, 1.6 μmol/L, 5.7 μmol/L and 20 μmol/L in duplicates). As positive inhibition control cells supplemented with 150 μM kynurenic acid were incubated in presence of 5 μM Staurosporin. Normalization was done by positive and negative controls.
Firefly luciferase and Renilla activity was determined by the DualGlo Luciferase Assay System (Promega, #2920). Renilla activity was used to assess toxic effects of compounds.

Compound | IC50
O=C(N[C@H](CO)C(F)(F)F)c1cc(-c2ccc(C(F)F)nc2)nn(-c2cccc(F)c2)c1=O [Example 28, 6-[6-(Difluoromethyl)pyridin-3-yl]-2-(3-fluorophenyl)-3-oxo-N-[(2R)-1,1,1-trifluoro-3-hydroxypropan-2-yl]-2,3-dihydropyridazine-4-carboxamide] | 0.00665 µM
O=C(N[C@H]1COCC[C@H]1O)c1cc(-c2ccc(C(F)(F)F)nc2)nn(-c2cccc(F)c2)c1=O [Example 40, 1,5-anhydro-2,4-dideoxy-2-[({2-(3-fluorophenyl)-3-oxo-6-[6-(trifluoromethyl)pyridin-3-yl]-2,3-dihydropyridazin-4-yl}carbonyl)amino]-D-erythro-pentitol] | 0.0328 µM
CC(C)(O)CNC(=O)c1cc(-c2ccc(C(F)F)nc2)nn(-c2cccc(F)c2)c1=O [Example 34, 6-[6-(Difluoromethyl)pyridin-3-yl]-2-(3-fluorophenyl)-N-(2-hydroxy-2-methylpropyl)-3-oxo-2,3-dihydropyridazine-4-carboxamide] | 0.156 µM
O=C(N[C@H](CO)C1CC1)c1cc(-c2ccc(C(F)F)nc2)nn(-c2cccc(F)c2)c1=O [Example 29, N-[(1S)-1-Cyclopropyl-2-hydroxyethyl]-6-[6-(difluoromethyl)pyridin-3-yl]-2-(3-fluorophenyl)-3-oxo-2,3-dihydropyridazine-4-carboxamide] | 0.0151 µM
Cc1ccc(-c2cc(C(=O)N[C@@H](C)CO)c(=O)n(-c3cccc(F)c3)n2)cn1 [Example 23, 2-(3-Fluorophenyl)-N-[(2S)-1-hydroxypropan-2-yl]-6-(6-methylpyridin-3-yl)-3-oxo-2,3-dihydropyridazine-4-carboxamide] | 0.265 µM
O=C(NC(CO)C1CCOC1)c1cc(-c2ccc(C(F)F)nc2)nn(-c2cccc(F)c2)c1=O (centres unmarked) [Example 36, 6-[6-(Difluoromethyl)pyridin-3-yl]-2-(3-fluorophenyl)-N-[2-hydroxy-1-(tetrahydrofuran-3-yl)ethyl]-3-oxo-2,3-dihydropyridazine-4-carboxamide] | 0.196 µM
C[C@@H](CO)NC(=O)c1cc(-c2ccc(C(F)(F)F)cn2)nn(-c2cccc(F)c2)c1=O [Example 25, 2-(3-Fluorophenyl)-N-[(2S)-1-hydroxypropan-2-yl]-3-oxo-6-[5-(trifluoromethyl)pyridin-2-yl]-2,3-dihydropyridazine-4-carboxamide] | 0.0848 µM
O=C(NC[C@H](O)C(F)F)c1cc(-c2cnc(C(F)(F)F)nc2)nn(-c2cccc(F)c2)c1=O [Example 15, N-[(2S)-3,3-Difluoro-2-hydroxypropyl]-2-(3-fluorophenyl)-3-oxo-6-[2-(trifluoromethyl)pyrimidin-5-yl]-2,3-dihydropyridazine-4-carboxamide] | 0.307 µM
Cc1ccc(-c2cc(C(=O)N[C@@H](C)CO)c(=O)n(-c3cccc(F)c3)n2)nc1 [Example 12, 2-(3-Fluorophenyl)-N-[(2S)-1-hydroxypropan-2-yl]-6-(5-methylpyridin-2-yl)-3-oxo-2,3-dihydropyridazine-4-carboxamide] | 1.08 µM
C[C@@H](CO)NC(=O)c1cc(-c2ccc(C(F)(F)F)cn2)nn(-c2cc(F)cc(F)c2)c1=O [Example 41, 2-(3,5-Difluorophenyl)-N-[(2S)-1-hydroxypropan-2-yl]-3-oxo-6-[5-(trifluoromethyl)pyridin-2-yl]-2,3-dihydropyridazine-4-carboxamide] | 0.0965 µM
C[C@@H](CO)NC(=O)c1cc(-c2ccc(Cl)cn2)nn(-c2cccc(F)c2)c1=O [Example 24, 6-(5-Chloropyridin-2-yl)-2-(3-fluorophenyl)-N-[(2S)-1-hydroxypropan-2-yl]-3-oxo-2,3-dihydropyridazine-4-carboxamide] | 0.352 µM
COc1ccc(-c2cc(C(=O)N[C@H](C)C(C)(C)O)c(=O)n(-c3cccc(F)c3)n2)cn1 [Example 20, 2-(3-Fluorophenyl)-N-[(2R)-3-hydroxy-3-methylbutan-2-yl]-6-(6-methoxypyridin-3-yl)-3-oxo-2,3-dihydropyridazine-4-carboxamide] | 0.509 µM
N#C[C@@H](CO)NC(=O)c1cc(-c2ccc(C(F)(F)F)nc2)nn(-c2cccc(F)c2)c1=O [Example 39, N-[(1S)-1-Cyano-2-hydroxyethyl]-2-(3-fluorophenyl)-3-oxo-6-[6-(trifluoromethyl)pyridin-3-yl]-2,3-dihydropyridazine-4-carboxamide] | 0.0228 µM
C[C@@H](CO)NC(=O)c1cc(-c2ccc(C(F)(F)F)cn2)nn(-c2ccccc2)c1=O [Example 42, N-[(2S)-1-Hydroxypropan-2-yl]-3-oxo-2-phenyl-6-[5-(trifluoromethyl)pyridin-2-yl]-2,3-dihydropyridazine-4-carboxamide] | 0.386 µM
O=C(NCC1(O)CCCCC1)c1cc(-c2ccc(C(F)F)nc2)nn(-c2cccc(F)c2)c1=O [Example 31, 6-[6-(Difluoromethyl)pyridin-3-yl]-2-(3-fluorophenyl)-N-[(1-hydroxycyclohexyl)methyl]-3-oxo-2,3-dihydropyridazine-4-carboxamide] | 0.0318 µM
C[C@@H](CO)NC(=O)c1cc(-c2ccc(C(F)(F)F)cn2)nn(-c2ccc(F)c(F)c2)c1=O [Example 43, 2-(3,4-Difluorophenyl)-N-[(2S)-1-hydroxypropan-2-yl]-3-oxo-6-[5-(trifluoromethyl)pyridin-2-yl]-2,3-dihydropyridazine-4-carboxamide] | 0.902 µM
O=C(N[C@H]1COCC[C@@H]1O)c1cc(-c2ccc(C(F)F)nc2)nn(-c2cccc(F)c2)c1=O [Example 37, 1,5-Anhydro-2,4-dideoxy-2-[({6-[6-(difluoromethyl)pyridin-3-yl]-2-(3-fluorophenyl)-3-oxo-2,3-dihydropyridazin-4-yl}carbonyl)amino]-L-threo-pentitol] | 0.268 µM
O=C(N[C@H]1COCC[C@H]1O)c1cc(-c2ccc(C(F)F)nc2)nn(-c2cccc(F)c2)c1=O [Example 35, 1,5-Anhydro-2,4-dideoxy-2-[({6-[6-(difluoromethyl)pyridin-3-yl]-2-(3-fluorophenyl)-3-oxo-2,3-dihydropyridazin-4-yl}carbonyl)amino]-D-erythro-pentitol] | 0.174 µM
CC(C)(O)[C@@H](NC(=O)c1cc(-c2ccc(C(F)F)nc2)nn(-c2cccc(F)c2)c1=O)C1CC1 [Example 27, N-[(1S)-1-Cyclopropyl-2-hydroxy-2-methylpropyl]-6-[6-(difluoromethyl)pyridin-3-yl]-2-(3-fluorophenyl)-3-oxo-2,3-dihydropyridazine-4-carboxamide] | 0.00408 µM
O=C(N[C@@H]1CSC[C@@H]1O)c1cc(-c2ccc(C(F)(F)F)nc2)nn(-c2cccc(F)c2)c1=O [Example 26, 2-(3-Fluorophenyl)-N-[(3S,4R)-4-hydroxytetrahydrothiophen-3-yl]-3-oxo-6-[6-(trifluoromethyl)pyridin-3-yl]-2,3-dihydropyridazine-4-carboxamide] | 5.74 µM
CC(C)(O)CNC(=O)c1cc(-c2cnc(C(F)(F)F)nc2)nn(-c2cccc(F)c2)c1=O [Example 17, 2-(3-Fluorophenyl)-N-(2-hydroxy-2-methylpropyl)-3-oxo-6-[2-(trifluoromethyl)pyrimidin-5-yl]-2,3-dihydropyridazine-4-carboxamide] | 2.03 µM
C[C@H](O)[C@H](C)NC(=O)c1cc(-c2cnc(C(F)(F)F)nc2)nn(-c2cccc(F)c2)c1=O [Example 16, 2-(3-Fluorophenyl)-N-[(2S,3S)-3-hydroxybutan-2-yl]-3-oxo-6-[2-(trifluoromethyl)pyrimidin-5-yl]-2,3-dihydropyridazine-4-carboxamide] | 0.169 µM
C[C@H](NC(=O)c1cc(-c2cnc(C(F)(F)F)nc2)nn(-c2cccc(F)c2)c1=O)C(C)(C)O [Example 14, 2-(3-Fluorophenyl)-N-[(2S)-3-hydroxy-3-methylbutan-2-yl]-3-oxo-6-[2-(trifluoromethyl)pyrimidin-5-yl]-2,3-dihydropyridazine-4-carboxamide] | 0.217 µM
